The assay has as its target T1, complex I (mitochondrial electron transport system; multi-subunit).
T1 construct: gene Mtnd1; native complex I in freeze-fractured fragments of isolated skeletal muscle mitochondria
The assay can be described thus: NADH oxidation (complex I activity) assay in mitochondrial fragments, dose-response. It is filed as biochemical, Mus musculus.

The IC50 is the point on the concentration scale where inhibition reaches its midpoint. High values mean weaker potency, low ones greater potency.

`CC(Sc1nc2ccccc2[nH]1)C(=O)N/N=C/c1cc(Br)ccc1O` (racemic) [KH7] yielded an IC50 of 3.7 µM.

The record behind these values is paper PMC4646981, “Protein Kinase A Governs Oxidative Phosphorylation Kinetics and Oxidant Emitting Potential at Complex I” (Frontiers in Physiology, 2015).
